# In patent publication US11655247B2, “Nanoluc suicide substrates” (PROMEGA CORPORATION, priority 2018, dated 2023):
# Key:
# NanoLuc [1] = molecular target: T1, NanoLuc (Oplophorus gracilirostris, UniProt Q9GV45, A31E/A60N/A81I/F95D/I117V/K70R/L54V/L99Q/M102K/N193R/P142E/Q151K/Q38R/Q45L/V71I/Y165I); experiment: Inhibition of NanoLuc luciferase: blocking of furimazine luminescence after pre-incubation; assay type: biochemical; conditions: for Inhibition of NanoLuc (bioluminescence upon later furimazine addition): compound incubated with NanoLuc first, then furimazine (10 μM) added; for Initial luminescent signal compared with furimazine: incubated with NanoLuc in DMEM for 12 minutes
# Protocol: Compounds were also tested for their ability to block furimazine luminescence with NanoLuc. Typically, NanoLuc (0.4 μg/mL) in DMEM was incubated with either furimazine or test compound (50 μM) while monitoring RLU's with a GloMax® luminometer for 10-60 minutes. After the set time, the plate was removed from the instrument, and a dose of furimazine (10 μM) was added to the well containing the test compound and monitored for 10-60 minutes.
# FIGS. 3A-B depicts inhibition of Nluc luciferase by furimazine-h. Furimazine-h (10 μM) was incubated with NanoLuc in NanoGlo or DMEM for 15 or 10 minutes, respectively. This bright signal rapidly degrades to a fraction of the signal observed in the furimazine positive control wells.
# FIG. 9 depicts inhibition of Nluc luciferase by furimazine-h. This is a reverse addition experiment as compared to FIG. 3. Furimazine (10 μM) was incubated with NanoLuc in NanoGlo® buffer for 15 minutes.
# JRW-0855 and JRW-1088 were incubated with NanoLuc in DMEM for 12 minutes. […] After the incubation period, 10 μM furimazine was added to the well.
# NanoLuc [2] = molecular target: T1, NanoLuc; assay type: biochemical; conditions: for RLU (at 100 μM): relative value, Furimazine set to 1, NanoLuc, read three minutes after substrate addition
# Protocol: Luminescence Assay Procedure:
# Each compound to be screened was dissolved in DMSO (5 mM) and then further diluted to 100 μM in NANO-GLO® Luciferase Assay Buffer. Km values were determined by first serially diluting substrates two-fold into NANO-GLO® Luciferase Assay Buffer. Substrate dilutions were then combined with an equal volume of NanoLuc diluted to 4 ng/ml in TBS+0.01% BSA. Autoluminescence was measured by combining the 100 uM dilution of substrate with TBS+0.01% BSA. Luminescence and autoluminescence values were measured in a GloMax®-Multi+ luminometer three minutes after substrate addition. Signal decay was measured by combining equal volumes of 100 uM of substrate with 4 ng/ml NanoLuc in TBS+0.01% BSA and then samples were read in five minute intervals for two hours using a GloMax®-Multi+. Km was calculated using GraphPad Prism using nonlinear Michaelis-Menten regression. Signal half-life values were calculated using GraphPad Prism Non-linear decay, plateau set to zero.
# T1 sequence (Q9GV45 28-196 with tags or gaps with the stated changes limits assumed): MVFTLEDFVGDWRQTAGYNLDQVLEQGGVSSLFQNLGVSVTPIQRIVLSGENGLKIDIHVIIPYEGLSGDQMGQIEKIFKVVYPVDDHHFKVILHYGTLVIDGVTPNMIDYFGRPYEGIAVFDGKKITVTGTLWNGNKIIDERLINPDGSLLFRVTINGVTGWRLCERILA
SMILES,Inhibition of NanoLuc (bioluminescence upon later furimazine addition) (NanoLuc [1]),RLU (at 100 μM) (NanoLuc [2]),Light output (value set to 1) (NanoLuc [2]; at 2 ng/mL NanoLuc),Initial luminescent signal compared with furimazine (NanoLuc [1])
"O=C(NCCCCCCCCOc1ccc(Cc2nc3c(Cc4ccccc4)[nH]c(-c4ccc(O)cc4)cn-3c2=O)cc1F)c1cc2cc3c4c(c2oc1=O)CCCN4CCC3 [JRW-1023, N-(8-(4-((8-benzyl-6-(4-hydroxyphenyl)-3-oxo-3,7-dihydroimidazo[1,2-a]pyrazin-2-yl)methyl)-2-fluorophenoxy)octyl)-11-oxo-2,3,6,7-tetrahydro-1H,5H,11H-pyrano[2,3-f]pyrido[3,2,1-ij]quinoline-10-carboxamide]",did not inhibit NanoLuc,,,
"[N-]=[N+]=NCCCCCCOc1ccc(Cc2nc3c(Cc4ccccc4)[nH]c(-c4ccc(O)cc4)cn-3c2=O)cc1F [JRW-0975, 2-(4-((6-azidohexyl)oxy)-3-fluorobenzyl)-8-benzyl-6-(4-hydroxyphenyl)imidazo[1,2-a]pyrazin-3(7H)-one]",exemplary suicide substrates of NanoLuc,0.005,,
"O=c1ccc2cc(Cc3nc4c(Cc5ccccc5)[nH]c(-c5ccc(O)cc5)cn-4c3=O)ccc2o1 [JRW-0995, 8-benzyl-6-(4-hydroxyphenyl)-2-((2-oxo-2H-chromen-6-yl)methyl)imidazo[1,2-a]pyrazin-3(7H)-one]",partial Nluc inhibitors,0.009,,
"O=C(CCc1ccc2n1[B-](F)(F)[N+]1=C(c3ccc[nH]3)C=CC1=C2)NCCCCCCOc1ccc(Cc2nc3c(Cc4ccccc4)[nH]c(-c4ccc(O)cc4)cn-3c2=O)cc1F [JRW-0900, N-(6-(4-((8-benzyl-6-(4-hydroxyphenyl)-3-oxo-3,7-dihydroimidazo[1,2-a]pyrazin-2-yl)methyl)-2-fluorophenoxy)hexyl)-3-(5,5-difluoro-7-(1H-pyrrol-2-yl)-5H-5l4,6l4-dipyrrolo[1,2-c:2′,1′-f][1,3,2]diazaborinin-3-yl)propanamide]",did not inhibit NanoLuc,0.00094,,
"O=c1c(Cc2ccco2)nc2c(Cc3ccccc3)[nH]c(-c3ccccc3)cn1-2 [Furimazine, 8-benzyl-2-(furan-2-ylmethyl)-6-phenylimidazo[1,2-a]pyrazin-3(7H)-one, reference compound]",,1,~2.0×10^7 RLU,
"O=c1c(Cc2ccc(OCCCCCCS(=O)(=O)[O-])c(F)c2)nc2c(Cc3ccccc3)[nH]c(-c3ccc(O)cc3)cn1-2.[Na+] [JRW-0892-2, Sodium 6-(4-((8-benzyl-6-(4-hydroxyphenyl)-3-oxo-3,7-dihydroimidazo[1,2-a]pyrazin-2-yl)methyl)-2-fluorophenoxy)hexane-1-sulfonate]",exemplary suicide substrates of NanoLuc,0.04,,
"O=C(NCCCCCCCCOc1ccc(Cc2nc3c(Cc4ccccc4)[nH]c(-c4ccc(O)cc4)cn-3c2=O)cc1F)c1ccc(-c2c3cc(F)c(O)cc3[o+]c3cc(O)c(F)cc23)c(C(=O)[O-])c1 [JRW-1058, 5-((8-(4-((8-benzyl-6-(4-hydroxyphenyl)-3-oxo-3,7-dihydroimidazo[1,2-a]pyrazin-2-yl)methyl)-2-fluorophenoxy)octyl)carbamoyl)-2-(2,7-difluoro-3,6-dihydroxyxanthylium-9-yl)benzoate]",exemplary suicide substrates of NanoLuc,,,
"O=C(NCCCCCCOc1ccc(Cc2nc3c(Cc4ccccc4)[nH]c(-c4ccc(O)cc4)cn-3c2=O)cc1F)c1ccc(C(=O)[O-])c(-c2c3ccc(O)cc3[o+]c3cc(O)ccc23)c1 [JRW-0893, 4-((6-(4-((8-benzyl-6-(4-hydroxyphenyl)-3-oxo-3,7-dihydroimidazo[1,2-a]pyrazin-2-yl)methyl)-2-fluorophenoxy)hexyl)carbamoyl)-2-(3,6-dihydroxyxanthylium-9-yl)benzoate]",exemplary suicide substrates of NanoLuc,0.05,,
"NCCCCCCOc1ccc(Cc2nc3c(Cc4ccccc4)[nH]c(-c4ccc(O)cc4)cn-3c2=O)cc1F [JRW-0855, 2-(4-((6-aminohexyl)oxy)-3-fluorobenzyl)-8-benzyl-6-(4-hydroxyphenyl)imidazo[1,2-a]pyrazin-3(7H)-one]",only partially inhibited,0.004,,significantly lower
"O=C(NCCCCCCCCOc1ccc(Cc2nc3c(Cc4ccccc4)[nH]c(-c4ccc(O)cc4)cn-3c2=O)cc1F)c1cc2ccc(O)cc2oc1=O [JRW-1018, N-(8-(4-((8-benzyl-6-(4-hydroxyphenyl)-3-oxo-3,7-dihydroimidazo[1,2-a]pyrazin-2-yl)methyl)-2-fluorophenoxy)octyl)-7-hydroxy-2-oxo-2H-chromene-3-carboxamide]",partial Nluc inhibitors,,,
"O=C(CCOCCOCCNC(=O)c1ccc(C(=O)[O-])c(-c2c3ccc(O)cc3[o+]c3cc(O)ccc23)c1)NCCCCCCCCOc1ccc(Cc2cc3c(Cc4ccccc4)[nH]c(-c4ccc(O)cc4)cn-3c2=O)cc1F [JRW-0926, 4-((2-(2-(3-((8-(4-((1-benzyl-3-(4-hydroxyphenyl)-6-oxo-2,6-dihydropyrrolo[1,2-a]pyrazin-7-yl)methyl)-2-fluorophenoxy)octyl)amino)-3-oxopropoxy)ethoxy)ethyl)carbamoyl)-2-(3,6-dihydroxyxanthylium-9-yl)benzoate]",exemplary suicide substrates of NanoLuc,0.04,,
"NCCCCCCCCOc1ccc(Cc2nc3c(Cc4ccccc4)[nH]c(-c4ccc(O)cc4)cn-3c2=O)cc1F [JRW-0904, 2-(4-((8-aminooctyl)oxy)-3-fluorobenzyl)-8-benzyl-6-(4-hydroxyphenyl)imidazo[1,2-a]pyrazin-3(7H)-one]",partial Nluc inhibitors,,,
"Cc1cc(C)n2c1C(CCNC(=O)CCC(=O)NCCCCCCCCOc1ccc(Cc3nc4c(Cc5ccccc5)[nH]c(-c5ccc(O)cc5)cn-4c3=O)cc1F)=C1C=CC=[N+]1[B-]2(F)F [JRW-1088, N1-(8-(4-((8-benzyl-6-(4-hydroxyphenyl)-3-oxo-3,7-dihydroimidazo[1,2-a]pyrazin-2-yl)methyl)-2-fluorophenoxy)octyl)-N4-(2-(5,5-difluoro-1,3-dimethyl-5H-5λ^4,6λ^4-dipyrrolo[1,2-c:2′,1′-f][1,3,2]diazaborinin-10-yl)ethyl)succinamide]",only partially inhibited,,,significantly lower
"O=C(NCCCCCCCCOc1ccc(Cc2nc3c(Cc4ccccc4)[nH]c(-c4ccc(O)cc4)cn-3c2=O)cc1F)c1ccc(-c2c3ccc4cc(O)ccc4c3[o+]c3c2ccc2cc(O)ccc23)c(C(=O)[O-])c1 [JRW-1059, 5-((8-(4-((8-benzyl-6-(4-hydroxyphenyl)-3-oxo-3,7-dihydroimidazo[1,2-a]pyrazin-2-yl)methyl)-2-fluorophenoxy)octyl)carbamoyl)-2-(3,11-dihydroxydibenzo[c,h]xanthen-14-ium-7-yl)benzoate]",NanoLuc is not inhibited,,,
"NCCOCCOCCC(=O)NCCCCCCCCOc1ccc(Cc2cc3c(Cc4ccccc4)[nH]c(-c4ccc(O)cc4)cn-3c2=O)cc1F [JRW-0925, 3-(2-(2-aminoethoxy)ethoxy)-N-(8-(4-((1-benzyl-3-(4-hydroxyphenyl)-6-oxo-2,6-dihydropyrrolo[1,2-a]pyrazin-7-yl)methyl)-2-fluorophenoxy)octyl)propanamide]",partial Nluc inhibitors,0.02,,
